Measured values published in patent publication US8642801B2 (BHI Limited Partnership, priority 2003, dated 2014).

What was measured:
[1] = test system: Aβ40 and Aβ42 peptides in plasma and brain of TgCRND8 mice; assay: Short term treatment in adult transgenic CRND8 mice overexpressing βAPP: Aβ levels in plasma and brain by ELISA; assay type: in vivo, Mouse; details: after 14 and 28 days of treatment, TgCRND8 mice
Outline: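 TgCRND8 mice (B6C3F1 backcross, ~11 weeks at treatment start) given short-term treatment; Aβ40 and Aβ42 in plasma and soluble/insoluble brain fractions measured by fluorometric sandwich ELISA (ex 460/em 560 nm). Levels normalized to vehicle (water or methylcellulose) groups and scored as +/− symbols by effect strength.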

[2] = test system: amyloid plaques in the brains of TgCRND8 mice; assay: Histological ThioS (thioflavin S) study of brain plaques, long term treatment of TgCRND8 mice; assay type: in vivo, Mouse; details: 30 mg/kg; preliminary histochemical experiments
Description: The following abbreviations are used to designate these animals in the present study: TgCRND8.B6AF1/J(N2); TgCRND8.B6AF1/J(N3). Male and female transgenic mice were given daily subcutaneous (compound BX) or oral (compounds BW and BZ) administrations of the appropriate compounds for 8 or 16 weeks.
Starting at 9 weeks of age (±1 week) animals received daily administration of their respective treatment for a period of 8 or 16 weeks, at a dose of 30 or 100 mg/kg at 10 ml/kg. The route of administration was subcutaneous for water-soluble compounds (Compound BX) and oral for compounds solubilized in methylcellulose 1% (MC 1%) (Compounds BW and BZ). At the end of the treatment periods, plasma and perfused brains were collected for quantification of Aβ levels.
For the ThioS studies, the plaques in the brains of the mice were quantified as follows. Mice were transcardially perfused with saline solution. […] Image analysis to quantify the number of plaques and the area occupied by these plaques was performed using Image Pro Plus software (Media Cybernetics, MD, USA). […]
Specifically, increases in the areas and numbers of plaques (relative to vehicle treated control) of 10 to 19.99% are scored as “+”. Decreases in the areas and numbers of plaques of 10 to 19.99% are scored as “−”. Additionally, changes of 9.99% or less in either direction are scored as “0”.

CC(C)(C)NCCCS(=O)(=O)O [BX, 3-(t-butyl)amino-1-propanesulfonic acid]
levels of Aβ peptides in the plasma [1]: significant increase
area occupied by the plaques (ThioS staining of brain sections) [2]: decreased
number of plaques (ThioS staining of brain sections) [2]: decreased
